Results taken from paper PMC11510191, “Exploring Benzo[h]chromene Derivatives as Agents against Protozoal and Mycobacterial Infections” (Pharmaceuticals, 2024).
In brackets after ≈: the same amount, converted by molar mass. Like-named read-outs stand apart in the source and are kept apart here.

What was measured:
[1] = Cytotoxicity on L929 fibroblasts (resazurin); conditions: mouse
[2] = system: T. cruzi epimastigotes; assay: Trypanocidal activity on T. cruzi epimastigotes (CL-B5 lacZ, CPRG); assay type: cell-based, Trypanosoma cruzi clone CL-B5; conditions: for Selectivity Index L929/ T. cruzi: SI = CC50 L929/IC50 parasites; for IC50: Trypanosoma cruzi, 72 h
Experimental: For in vitro studies of T. cruzi. the clone CL-B5 was used. Parasites were stably transfected with the Escherichia coli β-galactosidase gene (lacZ), provided by Facultad de Farmacia (Universidad Complutense de Madrid). Epimastigotes were grown at 28 °C in liver infusion tryptose broth (Difco, Detroit, MI, USA) with 10% fetal bovine serum (FBS) (Gibco, Carlsbad, CA, USA), penicillin (Ern S.A., Barcelona, Spain), and streptomycin (Reig Jofré S.A., Barcelona. Spain), as described previously, and harvested during the exponential growth phase. Briefly, the screening assay was performed in 96-well microplates (Sarstedt, Inc., Newton, NC, USA) with cultures that had not reached the stationary phase. Briefly, epimastigotes were seeded at 2 × 10^5 parasites/mL in 200 µL growth media. The plates were then incubated with the respective compounds at 28 °C for 72 h. Afterwards, 50 µL of CPRG solution was added, resulting in a final concentration of 200 µM. The plates were incubated at 37 °C for an additional 4 h and then read at 595 nm. Each concentration was tested in triplicate. […] These values were calculated from the sigmoidal dose–response curve adjustment using the statistical software program Graph-Pad Prims 3.0. Benznidazole was used as a reference drug.

[3] = system: M. intracellulare LIID-01; assay: MIC broth microdilution; assay type: cell-based; conditions: Mycobacterium intracellulare, LIID01
[4] = system: S. typhi (G−); assay: MIC broth microdilution; assay type: cell-based; conditions: Salmonella enterica, 24 h
[5] = system: M. abscessus LIID-02; assay: MIC broth microdilution; assay type: cell-based; conditions: Mycobacteroides abscessus, LIID02, 72 h
[6] = system: Leishmania infantum (L. i) promastigotes; assay: Leishmanicidal activity on L. infantum promastigotes (resazurin); conditions: for IC50: Leishmania infantum, 48 h, read-out: Leishmanicidal Activity IC50—L. i; for Selectivity Index L929/ L. i: SI = CC50 L929/IC50 parasites
Experimental: (§1) The culture of L. braziliensis (MHOM/CO/88/UA301) and L. infantum (MCAN/ES/92/BCN83) was obtained from the Facultad de Farmacia, Universidad Complutense de Madrid, Spain.
(§2) The maintenance of the strains, the form of cultivation, and the isolation of shape promastigota followed the procedures described by Roldós et al. [8]. The promastigotes were grown at 22 °C in Schneider’s Drosophila medium supplemented with 20% FBS. The assay was performed using a modification of a previous method [47]. Promastigotes (2 × 10^6 parasites/well) were cultured in 96-well plastic plates. Compounds were dissolved in dimethylsulfoxide (DMSO). Different dilutions of the compounds up to a 200 µL final volume were added. After 48 h at 26 °C, 20 µL of 2 mM resazurin solution was added and the oxidation–reduction was quantified at 570 and 600 nm. The solution of resazurin was prepared at 2.5 mM in phosphate-buffered solution (PBS), pH 7.4, and filtered through 0.22 µM prior to use. All tests were carried out in triplicate. Resazurin sodium salt was obtained from Sigma–Aldrich (St. Louis, MO, USA) and stored at 4 °C protected from light. The efficacy of each compound was estimated by calculating the IC50 values.

[7] = system: M. tuberculosis ATCC H37Rv; assay: MIC broth microdilution; assay type: cell-based; conditions: Mycobacterium tuberculosis, H37RV
[8] = system: S. aureus (G+); assay: MIC broth microdilution; assay type: cell-based; conditions: Staphylococcus aureus, 24 h
[9] = system: L. monocytogenes (G+); assay: MIC broth microdilution; assay type: cell-based; conditions: Listeria monocytogenes, 24 h
[10] = system: L. innocua (G+); assay: MIC broth microdilution; assay type: cell-based; conditions: Listeria innocua, 24 h
[11] = system: Leishmania brazilensis (L. b) promastigotes; assay: Leishmanicidal activity on L. braziliensis promastigotes (resazurin); conditions: for IC50: Leishmania, 48 h, read-out: Leishmanicidal Activity IC50—L. b; for Selectivity Index L929/ L. b: SI = CC50 L929/IC50 parasites
Experimental: as §1, §2

[12] = system: M. tuberculosis CIPTIR-F296; assay: MIC broth microdilution; assay type: cell-based; conditions: Mycobacterium tuberculosis, CIPTIRF296
[13] = system: E. faecalis (G+); assay: MIC broth microdilution; assay type: cell-based; conditions: Enterococcus faecalis, 24 h
[14] = system: B. cereus (G+); assay: MIC broth microdilution; assay type: cell-based; conditions: Bacillus cereus, 24 h
[15] = system: M. luteus (G+); assay: MIC broth microdilution; assay type: cell-based; conditions: Micrococcus luteus, 24 h
[16] = system: M. abscessus LIID-01; assay: MIC broth microdilution; assay type: cell-based; conditions: Mycobacteroides abscessus, LIID01, 72 h
[17] = system: E. coli (G−); assay: MIC broth microdilution; assay type: cell-based; conditions: Escherichia coli, 24 h
[18] = system: M. intracellulare LIID-02; assay: MIC broth microdilution; assay type: cell-based; conditions: Mycobacterium intracellulare, LIID02
[19] = system: M. abscessus LIID-03; assay: MIC broth microdilution; assay type: cell-based; conditions: Mycobacteroides abscessus, LIID03, 72 h
[20] = system: M. tuberculosis CIPTIR -D152; assay: MIC broth microdilution; assay type: cell-based; conditions: Mycobacterium tuberculosis
[21] = system: P. aeruginosa (G−); assay: MIC broth microdilution; assay type: cell-based; conditions: Pseudomonas aeruginosa, 24 h
[22] = system: M. fortuitum LIID-01; assay: MIC broth microdilution; assay type: cell-based; conditions: Mycolicibacterium fortuitum, LIID01, 72 h
[23] = epimastigotes, read-out: Trypanocidal Activity IC50 T. cruzi

SMILES | CC50 at 24 h [1] [µM] | Selectivity Index L929/ T. cruzi [2] | IC50 [2, 23] [µM] | IC50 [6] [µM] | IC50 [11] [µM] | further results
O=C(Cn1ccnc1[N+](=O)[O-])NCc1ccccc1 [Benznidazole, reference compound] | 769 | 14.0 | 54.7 | – | – | –
C#CCCC(=O)Oc1c2c(c3ccccc3c1OC(=O)CCC#C)OC(C)(C)C=C2 [Compound 1a] | 106 | 6 | 19.2 | 24.9 | 10.7 | MIC [3]: 50 µg/mL (≈ 124 µM); MIC [4]: > 200 µg/mL; MIC [5]: > 200 µg/mL; Selectivity Index L929/ L. i [6]: 4; MIC [7]: > 200 µg/mL; MIC [8]: 100 µg/mL (≈ 248 µM); MIC [9]: > 200 µg/mL; MIC [10]: > 200 µg/mL; Selectivity Index L929/ L. b [11]: 10; MIC [12]: > 200 µg/mL; MIC [13]: > 200 µg/mL; MIC [14]: > 200 µg/mL; MIC [15]: > 200 µg/mL; MIC [16]: > 200 µg/mL; MIC [17]: > 200 µg/mL; MIC [18]: > 200 µg/mL; MIC [19]: > 200 µg/mL; MIC [20]: > 200 µg/mL; MIC [21]: > 200 µg/mL; MIC [22]: > 200 µg/mL
C#CCCCC(=O)Oc1c2c(c3ccccc3c1OC(=O)CCCC#C)OC(C)(C)C=C2 [Compound 1b] | 128 | 3 | 37.3 | 30.5 | 6.7 | Selectivity Index L929/ L. i [6]: 4; Selectivity Index L929/ L. b [11]: 19
CC1(C)C=Cc2c(OC(=O)CCc3cn(-c4ccccc4)nn3)c(OC(=O)CCc3cn(-c4ccccc4)nn3)c3ccccc3c2O1 [Compound 2a] | > 256 | >4 | 68.7 | > 256 | > 256 | –
COc1ccc(-n2cc(CCC(=O)Oc3c4c(c5ccccc5c3OC(=O)CCc3cn(-c5ccc(OC)cc5)nn3)OC(C)(C)C=C4)nn2)cc1 [Compound 2b] | > 256 | >1 | 204 | > 256 | > 256 | –
CC1(C)C=Cc2c(OC(=O)CCc3cn(-c4ccc(Cl)cc4)nn3)c(OC(=O)CCc3cn(-c4ccc(Cl)cc4)nn3)c3ccccc3c2O1 [Compound 2c] | > 256 | – | > 256 | > 256 | > 256 | –
Cc1ccc(-n2cc(CCC(=O)Oc3c4c(c5ccccc5c3OC(=O)CCc3cn(-c5ccc(C)cc5)nn3)OC(C)(C)C=C4)nn2)cc1 [Compound 2d] | > 256 | – | > 256 | > 256 | > 256 | –
CC(=O)O[C@@H]1[C@@H](OC(C)=O)[C@H](OC(C)=O)CO[C@H]1n1cc(CCC(=O)Oc2c3c(c4ccccc4c2OC(=O)CCc2cn([C@@H]4OC[C@@H](OC(C)=O)[C@H](OC(C)=O)[C@H]4OC(C)=O)nn2)OC(C)(C)C=C3)nn1 [Compound 2e] | > 256 | – | > 256 | > 256 | > 256 | –
CC1(C)C=Cc2c(OC(=O)CCc3cn(-c4cccc(Cl)c4)nn3)c(OC(=O)CCc3cn(-c4cccc(Cl)c4)nn3)c3ccccc3c2O1 [Compound 2g] | > 384 | – | – | > 256 | > 256 | IC50 ([2]; read-out: Trypanocidal Activity IC50 T. cruzi, epimastigotes, 72 h): > 256 µM
CC1(C)C=Cc2c(OC(=O)CCc3cn(Cc4ccc([N+](=O)[O-])cc4)nn3)c(OC(=O)CCc3cn(Cc4ccc([N+](=O)[O-])cc4)nn3)c3ccccc3c2O1 [Compound 2h] | > 256 | – | > 256 | > 256 | > 256 | –
CC1(C)C=Cc2c(OC(=O)CCc3cn(Cc4ccc(Br)cc4)nn3)c(OC(=O)CCc3cn(Cc4ccc(Br)cc4)nn3)c3ccccc3c2O1 [Compound 2i] | > 256 | – | > 256 | > 256 | > 256 | –
